Laboratory results taken from patent publication US20220117920A1, “N-Aryl Benzenesulfonamides as Protonophores for the Treatment of Cancers, Metabolic Diseases and Traumatic Brain Injury” (University of Kentucky Research Foundation, priority 2019, published 2022).

Experiments:
Wnt signaling = assay: Wnt reporter assay, stable HEK293T cell line containing TOPFlash reporter, LiCl-activated; type: cell-based, human; conditions: 3 μM
Source text: To identify novel Wnt regulators by high throughput screening, a stable HEK293T cell line containing the TOPFlash reporter was established. To identify Wnt inhibitors that targeted molecular events downstream of β-catenin, we treated these cells with lithium chloride to inhibit GSK3 and to stabilize β-catenin. […] We also validated the results by transient transfection of Super 8× TOPFlash or 8× FOPFlash into HEK293T cells. […] Since the results from the stable and transient transfection are compatible, we used stable cell lines for all of the other experiments.
Reporter assay. Wnt reporter assay and cell staining assay have been described previously. We subcloned Super 8×TOPFlash (provided by Professor Randall Moon, University of Washington) into the pGL4.83 [hRlucP/Puro] Vector and transfected it into HEK293T cells. A stable HEK293T cell line containing the TOPFlash reporter was established using puromycin selection. To screen Wnt inhibitors that block the downstream signaling transduction pathway of β-catenin, we treated the reporter cells with 25 mM LiCl to stabilize β-catenin and activate Wnt signaling. The potential Wnt inhibitors identified from screening were validated by transfecting TOPFlash or FOPFlash plus control renilla reporters into HEK293T cells, and then treating the cells with DMSO or testing compounds in DMSO solution. The Wnt signaling was activated by LiCl or Wnt3A treatment.

[1] = system: purified mitochondria from mouse liver; assay: Uncoupling assay (OCR) using purified mitochondria from mouse livers; type: biochemical; conditions: 5 μM/1 μM
Procedure: All the steps were carried out at 4° C. or on ice. After mice were euthanized with CO2 followed by rapid decapitation, whole liver was quickly dissected out on a cold block and homogenized using a Teflon-glass dounce homogenizer containing isolation buffer (215 mM mannitol, 75 mM sucrose, 0.1% BSA, 20 mM HEPES, 1 mM EGTA, adjusted to pH 7.2 with KOH). The homogenate was transferred to a 2 mL-microcentrifuge tube and spun at 1,300×g for 3 min. The supernatant was transferred to a fresh 2 mL-microcentrifuge tube and spun at 13,000×g for 10 min. The supernatant was discarded, and the crude mitochondrial pellet was resuspended in a 1.5 mL-microcentrifuge tubes and pelleted again at 10,000×g for 10 min. The supernatant was discarded, and the mitochondrial pellets were resuspended in isolation buffer to obtain an approximate concentration ≥10 mg/mL of mitochondria. The absolute protein concentration was determined using a bicinchoninic acid (BCA) protein assay kit (Pierce, Cat #23,227) by recording absorbance at 560 nm on a Biotek Synergy HT plate reader (Winooski, Vt., USA).
Mitochondrial Bioenergetics Measurements. Mitochondrial bioenergetic measurements were carried out using a Seahorse XFe96 Extracellular Flux Analyzer (Agilent Technologies, Santa Clara, Calif., USA) to measure oxygen consumption rate (OCR) during various states of respiration. The OCR were measured in the presence of different substrates, inhibitors and uncouplers of the electron transport chain using previous methods with slight modifications. The stocks used for the assays were 500 mM pyruvate, 250 mM malate, and 30 mM adenosine diphosphate (ADP), and 1 M succinate (pH for all was adjusted to 7.2). […] Stock solutions of FH535, Y3, FH535-M, and Y3-M were prepared at 5 mM in 100% DMSO. As per the instructions from XFe96 Extracellular Flux kit, the sensor cartridge was hydrated with water and kept at 37° C. overnight before the experiment. One hour before the assay was conducted, water was removed from assay plates and XF calibrant was added before re-incubation. The injection ports A to D of the sensor cartridge were loaded with 25 μL of different combinations of the above substrates/inhibitors/uncouplers as follows. Before loading, the stocks were diluted appropriately in the respiration buffer (RB) (125 mM KCl, 0.1% BSA, 20 mM HEPES, 2 mM MgCl2, and 2.5 mM KH2PO4; pH 7.2) to get the final concentrations in the respiration chamber of 5 μM pyruvate, 2.5 μM malate, 10 μM of succinate and 1 μM ADP (via Port A), 1 μM oligomycin A (via Port B), 4 μM FCCP or 5 μM/1 μM FH535 or 5 μM/1 μM Y3 or 5 μM/1 μM FH535-M or 5 μM/1 μM Y3-M (via Port C) and 0.1 μM antimycin A (via Port D) starting with the initial volume of 175 μL RB in the chamber and diluting it to 9×, 10×, 11× and 12× with every injection through ports A to D, respectively. Once loaded, the sensor cartridge was placed into the Seahorse XFe96 Flux Analyzer for automated calibration. Seahorse Standard XFe96 assay plates were used for loading mitochondria. Initially total mitochondria were diluted to 6 μg/30 μL in RB and 30 μL was loaded in each well resulting in 6 μg mitochondria/well. The assay plates were centrifuged at 3,000 rpm for 4 min at 4° C. to adhere liver mitochondria at the bottom of the wells. After centrifugation, 145 μL RB (pre-incubated to 37° C.) was added without disturbing the mitochondrial layer to obtain a final volume of 175 μL per well. […]

Huh7 tumor xenograft = Huh7 tumor xenograft model in athymic nude mice; type: in vivo
Procedure: All animal experiments were performed in accord with the guidelines, rules and recommendations and was approved by the University of Kentucky Institutional Animal Care and Use Committee after approval (IACUC). Three- to four-weeks old female athymic nude mice (nu/nu, The Jackson Laboratory, USA) were housed in a pathogen-free environment at the Division of Laboratory Animal Resources of the Chandler Medical Center, University of Kentucky. To generate in vivo tumors, Huh7 culture cells in mid-log phase growth were collected and re-suspended in a 50% mixture of Matrigel (BD Biosciences, USA) in serum-free medium to a final concentration of 6×10^7 cells per mL. A volume of 0.1 mL of the cell suspension was injected subcutaneously in the right flank of each mouse. Mice were weighed and checked for tumor growth every other day. When tumors reached a volume of 100 mm^3, mice were randomly divided into two groups of 5: vehicle control group and FH535 group (receiving 15 mg of FH535/kg/day from a stock prepared in dimethyl sulfoxide (DMSO) at 21.7 mg/mL and diluted in serum-free medium to a final concentration of 40% DMSO). Vehicle and FH535 were administered by intraperitoneal injection every other day. Tumors were measured using an optical caliper and tumor size was calculated using the formula: 0.5×length×(width)^2. Mice were euthanized at the end of the experiment or when reaching humane end-point following AVMA guidelines. Humane end-points included animals with tumors exceeding 20 mm in maximum diameter, with ulcerated tumors, more than 20% body weight loss, impaired mobility, labored breathing or with a body condition score below 2.
Tumors from the xenograft model were formaldehyde fixed and paraffin-embedded and were used to performed H&E staining and immunohistochemistry of Ki-67 according to standard procedures.

Wnt/β-catenin pathway = assay: TOP-Flash TCF4-dependent dual luciferase reporter assay in Huh7 cells; type: cell-based, human; conditions: Huh7, 10 mM LiCl
Procedure: Cells were plated at 1×10^5 cells/well in 24-well plates and transiently transfected with 490 ng of luciferase-reporter plasmid and 10 ng of phRL-TK per well using the Turbofect transfection reagent (Thermo Scientific, USA). After 5-6 h post-transfection, cells were treated with drug(s) or DMSO vehicle control for 36 h in the presence or absence of LiCl (10 mM). Luciferase assays were performed using the Dual Luciferase Assay System (Promega, USA) according to manufacturer's instructions.

**Q.** Which “inhibition of Wnt signaling” value (Wnt signaling) does the source give for `Cc1cc([N+](=O)[O-])ccc1NS(=O)(=O)c1cc(Cl)ccc1Cl` [FH535, 2,5-dichloro-N-(2-methyl-4-nitrophenyl)benzenesulfonamide] here?
**A.** inhibited Wnt signaling

**Q.** What about the “uncoupling: OCR blocked by oligomycin” value [1] of the same compound?
**A.** increased OCR in dose-dependent manner

**Q.** What about the “reduction of tumor weight compared to vehicle” value (Huh7 tumor xenograft; 15 mg/Kg i.p. every other day, 10 day treatment) of the same compound?
**A.** 42±8%

**Q.** What about the “tumor volume compared to control group” value (Huh7 tumor xenograft; 15 mg/kg every other day, after four days of treatment, p<0.05) of the same compound?
**A.** significantly reduced

**Q.** What about the “proliferation index (Ki-67)” value (Huh7 tumor xenograft; excised tumors, same in control group) of the same compound?
**A.** greater than 95%

**Q.** What about the “Wnt/β-catenin transcriptional activity (TOP-Flash)” value (Wnt/β-catenin pathway) of the same compound?
**A.** target the Wnt/β-catenin signaling pathway
